Test results reported in patent US20160263073A1, “MONOACYLGLYCEROLS FOR USE IN THE TREATMENT OF MALABSORPTION HAVING A MECHANICAL BASIS” (NESTEC S.A., priority 2013, published 2016).

Tests used:
[1] = lipid maldigestion or malabsorption rat model (XENICAL-induced): EPA level in red blood cell lipids; assay type: in vivo; details: rats; for level of EPA incorporated in red blood cells: day 7, with XENICAL (ORLISTAT), FIG. 2
Protocol: The concept was tested in a lipid maldigestion or malabsorption rat model. The maldigestion or malabsorption condition was obtained using XENICAL® (ORLISTAT), a pancreatic and gastric lipases inhibitor (tetrahydrolipstatin; see FIG. 7). Rats were fed during 21 days with long-chain polyunsaturated fatty acid (LC-PUFA) supplements containing mainly eicosapentaenoic (EPA) acid. Fish oil was used as a source of triacylglycerols, and different EPA glycerides were evaluated. XENICAL® (ORLISTAT) was given at a level sufficient to decrease lipid absorption by 40%. A group receiving fish oil without XENICAL® (ORLISTAT) was used as a positive control. At different time intervals (D3, D7, […]), the fatty acid profiles of red blood cell and plasma lipids were determined. At the end of the experiment, the fatty acid profiles of different tissues were determined. The main objective was to follow the level of EPA in red blood cell and plasma lipids. The main comparison evaluated was the difference in EPA level between the group receiving EPA-containing sn-1(3) MAG in combination with XENICAL® (ORLISTAT) and the positive control group (fish oil+XENICAL® (ORLISTAT)). […] This comparison corroborates the validity of the model.

[2] = clinical study: sn-1(3) MAG versus fish oil (TAG) in delivering EPA under lipid maldigestion induced by XENICAL; assay type: in vivo, human
Protocol: This clinical study compared the efficacy of sn-1(3) MAG and fish oil (TAG) in delivering EPA in humans under lipid maldigestion conditions induced by XENICAL® (ORLISTAT). The comparison was tested in volunteers having a BMI of 37-40 kg/m^2 and treated with XENICAL® (ORLISTAT) to induce lipid maldigestion or not treated with XENICAL® (ORLISTAT). The primary objective was to assess accretion of EPA in erythrocytes over 21 days when consumed as fish oil (TAG) or sn-1(3) MAG. The secondary objectives were to assess accretion of EPA in plasma over 21 days and also to assess the pharmacokinetics of EPA after an acute dose either in the form of sn-1(3) MAG or TAG (AUC in chylomicrons over 10 hours postprandial).

SMILES	EPA incorporation in red blood cells ([1]; day 7, fish oil with XENICAL compared with fish oil without XENICAL)	incorporation of LC-PUFAs in tissue ([1]; conditions of lipid maldigestion or malabsorption)	level of EPA incorporated in red blood cells ([1]; compared with fish oil in combination with XENICAL, all P values lower than 0.05)	level of EPA incorporated in red blood cells ([1]; compared with the fish oil group without XENICAL)	chronic effect: accretion of EPA in erythrocytes after 21 days ([2]; humans, with XENICAL, in comparison to fish oil and XENICAL, p=0.0001, FIG. 5)	chronic effect: accretion of EPA in plasma after 21 days ([2]; humans, with XENICAL, relative to fish oil and XENICAL, p=0.0003, FIG. 6)	carrier for EPA ([2]; obese subjects treated with XENICAL, compared with fish oil (TAG))
CCCCCCCCCCC[C@@H](C[C@@H]1OC(=O)[C@H]1CCCCCC)OC(=O)[C@H](CC(C)C)NC=O [XENICAL® (ORLISTAT), tetrahydrolipstatin, reference compound]	decreases EPA incorporation in red blood cells	–	–	–	–	–	–
CC/C=C\C/C=C\C/C=C\C/C=C\C/C=C\CCCC(=O)OCC(O)CO (stereo not shown) [sn-1(3) MAG, sn-1(3)-monoeicosapentaenoylglycerol]	–	improved	statistically higher	even higher than the fish oil group	statistically significant	statistically significant	better carrier for EPA than fish oil (TAG)
